Test results reported in patent publication US9422293B2 (priority 2006, dated 2016).
Where a name gives a salt, the structure may show the parent alone.

Target: rat TRPV1 (Rattus norvegicus (Rat), UniProt O35433)
Settings: read-out: Rat IC50
Procedure: Biological Testing: Functional Assay: Block of Capsaicin-Induced Ca^2+ Influx A. Human Assay
Cells were passaged frequently, every 3-5 days, to avoid overgrowth, depletion of essential medium components, or acidic medium exposure. Cells were passaged using a brief wash in 0.05% trypsin with 1 mM EDTA, followed by dissociation in divalent-free phosphate-buffered saline (Hyclone #SH30028.02). […] The assay buffer was composed of 130 mM NaCl, 2 mM KCl, 2 mM MgCl2, 10 mM HEPES, 5 mM glucose, and either 2 mM or 20 μM CaCl2. On the day of the experiment, the culture medium was replaced with 2 mM calcium assay buffer using an automated plate washer (ELx405; Biotek, VT). […] After loading the cells, the dye solution was replaced with 50 μL/well of 20 μM calcium assay buffer using the ELx405 plate washer. Test compounds (50 μL/well) were added to the plate and incubated for 30 min. […] The IC50 values were determined. […] The contents of the wells were mixed 3 times (40 μL mix volume) immediately after the additions were made. Concentration dependence of block was determined by exposing each well of cells in duplicate rows of a 96 well plate to a serial dilution of test compound. The concentration series usually started at 10 μM with a three-fold serial decrement in concentration. The magnitude of the capsaicin response was determined by measuring the change in fluo3 fluorescence before and 100 seconds after the addition of the agonist. Data were analyzed using a non-linear regression program (Origin; OriginLab, MA). IC50 values shown are the average (mean) of the results obtained.
The assay was performed as described above, using HEK293 cells transfected with rat TRPV1 (rTRPV1/HEK293). […] IC50 values shown are the average (mean) of the results obtained.

rat TRPV1, sequence (O35433 whole entry): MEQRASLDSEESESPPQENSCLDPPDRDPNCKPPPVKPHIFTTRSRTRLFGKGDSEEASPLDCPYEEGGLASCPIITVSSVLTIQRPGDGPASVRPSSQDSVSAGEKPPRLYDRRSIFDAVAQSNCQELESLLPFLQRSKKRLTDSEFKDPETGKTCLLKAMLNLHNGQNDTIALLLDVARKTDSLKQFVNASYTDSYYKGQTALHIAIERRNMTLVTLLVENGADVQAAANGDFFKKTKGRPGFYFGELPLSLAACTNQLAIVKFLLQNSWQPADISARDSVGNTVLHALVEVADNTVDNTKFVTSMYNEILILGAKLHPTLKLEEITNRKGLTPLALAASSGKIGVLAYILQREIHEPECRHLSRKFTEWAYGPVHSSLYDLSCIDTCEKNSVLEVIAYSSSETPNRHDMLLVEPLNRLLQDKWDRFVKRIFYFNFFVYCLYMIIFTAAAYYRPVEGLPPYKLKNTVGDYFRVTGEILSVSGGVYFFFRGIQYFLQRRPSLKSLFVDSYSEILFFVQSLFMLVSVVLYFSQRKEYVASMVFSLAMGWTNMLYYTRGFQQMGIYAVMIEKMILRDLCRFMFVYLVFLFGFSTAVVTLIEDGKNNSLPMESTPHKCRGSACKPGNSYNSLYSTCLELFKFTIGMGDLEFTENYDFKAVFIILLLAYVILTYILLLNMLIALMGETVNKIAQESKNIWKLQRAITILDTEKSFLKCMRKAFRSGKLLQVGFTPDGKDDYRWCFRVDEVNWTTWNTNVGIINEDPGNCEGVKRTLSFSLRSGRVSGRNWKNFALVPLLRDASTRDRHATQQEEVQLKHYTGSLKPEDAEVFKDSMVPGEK

SMILES	IC50 [µM]
Cc1cc(C(F)(F)F)ccc1Nc1nc(OC2CCCC2)nc2c1CCN(c1ncccc1C(F)(F)F)CC2 [Example 310, 2-(Cyclopentyloxy)-N-[2-methyl-4-(trifluoromethyl)phenyl]-7-[3-(trifluoromethyl)pyridin-2-yl]-6,7,8,9-tetrahydro-5H-pyrimido[4,5-d]azepin-4-amine]	0.07
CC(C)c1nc2c(c(NCCc3ccccc3F)n1)CCN(c1ncccc1C(F)(F)F)CC2 [Example 118, N-[2-(2-Fluorophenyl)ethyl]-2-(1-methylethyl)-7-[3-(trifluoromethyl)pyridin-2-yl]-6,7,8,9-tetrahydro-5H-pyrimido[4,5-d]azepin-4-amine]	0.5
FC(F)(F)c1ccc(Nc2nc(N3CCCCCC3)nc3c2CCN(c2ncccc2C(F)(F)F)CC3)cc1Cl [Example 224, 2-Azepan-1-yl-N-[3-chloro-4-(trifluoromethyl)phenyl]-7-[3-(trifluoromethyl)pyridin-2-yl]-6,7,8,9-tetrahydro-5H-pyrimido[4,5-d]azepin-4-amine]	0.02
CC(C)c1nc2c(c(Nc3ccc(C(F)(F)F)c(Cl)n3)n1)CCN(c1ncccc1C(F)(F)F)CC2 [Example 188, N-[6-Chloro-5-(trifluoromethyl)pyridin-2-yl]-2-(1-methylethyl)-7-[3-(trifluoromethyl)pyridin-2-yl]-6,7,8,9-tetrahydro-5H-pyrimido[4,5-d]azepin-4-amine hydrochloride salt]	1.59
CC(C)c1nc2c(c(NCCc3ccccc3Br)n1)CCN(c1ncccc1C(F)(F)F)CC2 [Example 119, N-[2-(2-Bromophenyl)ethyl]-2-(1-methylethyl)-7-[3-(trifluoromethyl)pyridin-2-yl]-6,7,8,9-tetrahydro-5H-pyrimido[4,5-d]azepin-4-amine]	1.22
FC(F)(F)c1ccc(Nc2nc(NCC3CCCCC3)nc3c2CCN(c2ncccc2C(F)(F)F)CC3)cn1 [Example 270, N^2-(Cyclohexylmethyl)-7-[3-(trifluoromethyl)pyridin-2-yl]-N^4-[6-(trifluoromethyl)pyridin-3-yl]-6,7,8,9-tetrahydro-5H-pyrimido[4,5-d]azepine-2,4-diamine]	0.83
CSc1nc2c(c(Nc3ccc(C(C)(C)C)cc3)n1)CCN(c1ncccc1C(F)(F)F)CC2 [Example 202, N-[4-(1,1-Dimethylethyl)phenyl]-2-(methylsulfanyl)-7-[3-(trifluoromethyl)pyridin-2-yl]-6,7,8,9-tetrahydro-5H-pyrimido[4,5-d]azepin-4-amine]	12.4
CC(C)c1nc2c(c(Nc3ccc(N4CCCC4)nc3)n1)CCN(c1ncccc1C(F)(F)F)CC2 [Example 165, [2-Isopropyl-7-(3-trifluoromethyl-pyridin-2-yl)-6,7,8,9-tetrahydro-5H-pyrimido[4,5-d]azepin-4-yl]-(6-pyrrolidin-1-yl-pyridin-3-yl)-amine]	2.25
O=S(=O)(c1ccc(Nc2nc(Sc3ccccc3)nc3c2CCN(c2ncccc2C(F)(F)F)CC3)cc1)C(F)(F)F [Example 350, 2-(Phenylsulfanyl)-7-[3-(trifluoromethyl)pyridin-2-yl]-N-{4-[(trifluoromethyl)sulfonyl]phenyl}-6,7,8,9-tetrahydro-5H-pyrimido[4,5-d]azepin-4-amine]	0.03
Cc1cncnc1N1CCc2ncnc(Nc3ccc(C(C)(C)C)cc3)c2CC1 [Example 38, (4-tert-Butyl-phenyl)-[7-(5-methyl-pyrimidin-4-yl)-6,7,8,9-tetrahydro-5H-pyrimido[4,5-d]azepin-4-yl]-amine]	1.4
COCCN(C)c1nc2c(c(Nc3ccc(C(C)(C)C)cc3)n1)CCN(c1ncccc1C(F)(F)F)CC2 [Example 257, N^4-[4-(1,1-Dimethylethyl)phenyl]-N^2-methyl-N^2-[2-(methyloxy)ethyl]-7-[3-(trifluoromethyl)pyridin-2-yl]-6,7,8,9-tetrahydro-5H-pyrimido[4,5-d]azepine-2,4-diamine]	0.02
CN(C)S(=O)(=O)c1ccc(Nc2nc(N3CCCCC3)nc3c2CCN(c2ncccc2C(F)(F)F)CC3)cc1 [Example 158, N,N-Dimethyl-4-({2-piperidin-1-yl-7-[3-(trifluoromethyl)pyridin-2-yl]-6,7,8,9-tetrahydro-5H-pyrimido[4,5-d]azepin-4-yl}amino)benzenesulfonamide]	0.06
FC(F)(F)c1ccc(Nc2nc(-c3ccncc3)nc3c2CCN(c2ncccc2C(F)(F)F)CC3)nc1 [Example 190, 2-Pyridin-4-yl-7-[3-(trifluoromethyl)pyridin-2-yl]-N-[5-(trifluoromethyl)pyridin-2-yl]-6,7,8,9-tetrahydro-5H-pyrimido[4,5-d]azepin-4-amine trifluoroacetic acid salt]	1.16
Cc1nc2ccccc2nc1N1CCc2ncnc(Nc3ccc(C(C)(C)C)cc3)c2CC1 [Example 32, (4-tert-Butyl-phenyl)-[7-(3-methyl-quinoxalin-2-yl)-6,7,8,9-tetrahydro-5H-pyrimido[4,5-d]azepin-4-yl]-amine]	0.013
CC(C)(C(=O)O)c1ccc(Nc2nc(N3CCCCC3)nc3c2CCN(c2ncccc2C(F)(F)F)CC3)cc1 [Example 186, 2-Methyl-2-[4-({2-piperidin-1-yl-7-[3-(trifluoromethyl)pyridin-2-yl]-6,7,8,9-tetrahydro-5H-pyrimido[4,5-d]azepin-4-yl}amino)phenyl]propanoic acid]	0.14
CN1CCC(Oc2nc3c(c(Nc4ccc(C(F)(F)F)cc4)n2)CCN(c2ncccc2C(F)(F)F)CC3)CC1 [Example 311, 2-[(1-Methylpiperidin-4-yl)oxy]-N-[4-(trifluoromethyl)phenyl]-7-[3-(trifluoromethyl)pyridin-2-yl]-6,7,8,9-tetrahydro-5H-pyrimido[4,5-d]azepin-4-amine]	> 20
CC(C)NS(=O)(=O)c1cccnc1N1CCc2nc(N3CCCCC3)nc(Nc3ccc(C(F)(F)F)cc3)c2CC1 [Example 300, N-(1-Methylethyl)-2-(2-piperidin-1-yl-4-{[4-(trifluoromethyl)phenyl]amino}-5,6,8,9-tetrahydro-7H-pyrimido[4,5-d]azepin-7-yl)pyridine-3-sulfonamide]	2
CC(C)c1nc2c(c(Nc3ccc(-c4cnco4)cc3)n1)CCN(c1ncccc1C(F)(F)F)CC2 [Example 142, 2-(1-Methylethyl)-N-[4-(1,3-oxazol-5-yl)phenyl]-7-[3-(trifluoromethyl)pyridin-2-yl]-6,7,8,9-tetrahydro-5H-pyrimido[4,5-d]azepin-4-amine]	2.09
CC(C)(C)c1ccc(Nc2nc(N3CCOCC3)nc3c2CCN(c2ncccc2C(F)(F)F)CC3)cc1 [Example 47, (4-tert-Butyl-phenyl)-[2-morpholin-4-yl-7-(3-trifluoromethyl-pyridin-2-yl)-6,7,8,9-tetrahydro-5H-pyrimido[4,5-d]azepin-4-yl]-amine]	0.023
CC(C)c1nc2c(c(NCCc3ccc(Cl)cc3)n1)CCN(c1ncccc1C(F)(F)F)CC2 [Example 124, N-[2-(4-Chlorophenyl)ethyl]-2-(1-methylethyl)-7-[3-(trifluoromethyl)pyridin-2-yl]-6,7,8,9-tetrahydro-5H-pyrimido[4,5-d]azepin-4-amine]	0.57
CN1CCCc2ccc(Nc3nc(OC4CCCC4)nc4c3CCN(c3ncccc3C(F)(F)F)CC4)cc21 [Example 324, 2-(Cyclopentyloxy)-N-(1-methyl-1,2,3,4-tetrahydroquinolin-7-yl)-7-[3-(trifluoromethyl)pyridin-2-yl]-6,7,8,9-tetrahydro-5H-pyrimido[4,5-d]azepin-4-amine]	0.1
